Test [1] concerns male C57BL/6 mice. The test is described as follows: Forced swim test. The test is classed as in vivo, mouse. As to the method:
Male C57BL/6 mice (22–26 g, 7 weeks) were purchased from Orient Bio Inc. (Seongnam-si, Korea), a branch of Charles River Laboratories (Seoul, Republic of Korea), and kept in the University Animal Care Unit for 1 week before the experiments. Five animals were housed per cage and allowed access to water and food ad libitum; the environment was maintained at a constant temperature (23 ± 1 °C) and humidity (60 ± 10%) under a 12 h light/dark cycle (the lights were on from 07:30 to 19:30 h). The treatment and maintenance of the animals were carried out according to the Animal Care and Use Guidelines of Dong-A University, Republic of Korea. All in vivo experiments were performed according to the protocols approved by the Institutional Animal Care and Use Committee of Dong-A University (approved protocol numbers: DIACUC-approved-17-20) and were per the National Institutes of Health guidelines. A forced swim test (FST) was performed in a transparent cylindrical glass cylinder with a diameter of 14 cm and a height of 25 cm filled with 20 cm of water (24 ± 2 °C). Mice were habituated to the experimental environment 1 h before the test. […] Mice were immersed in water and recorded with a video camera for a total of 6 min. Immobility time was analyzed for the last 4 min of the 6 min using a video-based Ethovision System (Noldus, Wageningen, The Netherlands).

The target in test [2] is hD3R (Homo sapiens, UniProt P35462). The test is described as follows: Cell-based functional GPCR assay, cAMP, CHO-D3R. As to the method:
(§1) Cell-based functional GPCR assays were conducted in CHO cells and Ba/F3 cells transfected with a plasmid containing the GPCR gene of interest. The functional activity of the test compounds (agonist or antagonist) was evaluated by measuring their effects on cAMP modulation or Ca^2+ ion mobilization, depending on the receptor type. All assays were performed at Eurofins Cerep (Le Bois I’Eveque, France) following their in-house protocol, as stated in our previous reports.
(§2) The functional activity of the test compounds on D1R, D3R, and D4R was assessed by evaluating the effect on cAMP modulation.

Test [3] deals with hD1R (Homo sapiens, UniProt P21728). Briefly: Cell-based functional GPCR assay, cAMP, CHO-D1R. As to conditions: for % Stimulation, hD1R: 100 μM compound, % of control agonist response (10 μM DA). As to the method:
as §1, §2

Test [4] addresses T1, h5HT1AR (Homo sapiens, UniProt P08908).
T1 construct: host or cells: Ba/F3 (Ba/F3-5HT1AR)
T1 sequence (P08908 1-422): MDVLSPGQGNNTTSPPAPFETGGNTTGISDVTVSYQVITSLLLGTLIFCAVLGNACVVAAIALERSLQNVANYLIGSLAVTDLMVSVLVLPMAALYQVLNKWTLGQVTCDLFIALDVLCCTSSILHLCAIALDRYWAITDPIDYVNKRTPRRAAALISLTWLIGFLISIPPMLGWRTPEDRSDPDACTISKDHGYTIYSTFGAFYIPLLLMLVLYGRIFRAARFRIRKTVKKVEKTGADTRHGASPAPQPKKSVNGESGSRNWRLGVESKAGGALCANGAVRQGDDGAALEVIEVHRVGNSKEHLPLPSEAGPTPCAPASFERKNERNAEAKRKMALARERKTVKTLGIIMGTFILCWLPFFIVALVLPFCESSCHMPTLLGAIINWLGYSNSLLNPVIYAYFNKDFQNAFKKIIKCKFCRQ
Briefly: Cell-based functional GPCR assay, Ca2+ mobilization, Ba/F3-5HT1AR. As to conditions: for % Stimulation, h5HT1AR: 100 μM compound, % of control agonist response (2.5 μM serotonin). The method, then: as §1
(§3) The functional activity of the test compounds on D2R and 5HT1AR was tested by fluorimetrically evaluating their effect on cytosolic Ca^2+ ion mobilization. […] Then, a fluorescent probe (Fluo8, AAT Bioquest, Sunnyvale, CA, USA) mixed with probenecid in HBSS (Invitrogen, Carlsbad, CA, USA) supplemented with […] (Invitrogen) (pH 7.4) was added to each well, and the cells were allowed to equilibrate for 60 min at 37 °C. […] We then measured the fluorescent intensity, which varied in proportion to the free cytosolic Ca^2+ ion concentration.
On the technique in general: A change in cytosolic calcium serves as a functional read-out for many receptors and channels.

Test [5] has as its target T2, hMAO-B (Homo sapiens, UniProt P27338).
T2 construct: purchased Sigma-Aldrich
T2 sequence (P27338 1-520): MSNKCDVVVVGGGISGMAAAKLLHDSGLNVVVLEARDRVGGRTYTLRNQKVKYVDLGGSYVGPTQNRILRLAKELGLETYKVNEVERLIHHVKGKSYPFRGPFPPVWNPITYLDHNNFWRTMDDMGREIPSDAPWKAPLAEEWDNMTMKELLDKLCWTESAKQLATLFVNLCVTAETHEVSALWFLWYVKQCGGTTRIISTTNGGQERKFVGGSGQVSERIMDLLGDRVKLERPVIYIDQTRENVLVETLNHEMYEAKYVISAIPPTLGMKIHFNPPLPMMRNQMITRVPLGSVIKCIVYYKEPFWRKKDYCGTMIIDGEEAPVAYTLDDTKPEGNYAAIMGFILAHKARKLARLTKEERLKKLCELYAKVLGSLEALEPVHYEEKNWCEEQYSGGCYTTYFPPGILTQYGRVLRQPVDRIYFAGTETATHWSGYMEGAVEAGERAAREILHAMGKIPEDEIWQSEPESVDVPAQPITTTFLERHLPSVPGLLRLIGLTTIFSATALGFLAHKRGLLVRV
The test is described as follows: In vitro hMAO-B inhibition and enzyme kinetics, chemiluminescent MAO-Glo assay. In kind it is biochemical. As to conditions: for IC50: recombinant hMAO-B, mean ± SD of triplicate experiments; for SI (selective index): ratio of hMAO-A IC50/hMAO-B IC50. As to the method:
(§4) A chemiluminescent assay was performed in a white, opaque 96-well plate using the MAO-Glo kit (Promega, Madison, WI, USA) to evaluate human monoamine oxidase (hMAO) inhibitory potential. Detailed experimental conditions and procedures were reported previously. The test compounds were evaluated at different concentrations to obtain an IC50 value. The percent of inhibition (%) was obtained with the following equation: % Inhibition = (Ac − As)/Ac × 100, where Ac is the absorbance of the control and As is the absorbance of the sample. For hMAO-A, clorgyline was used as a positive control.
(§5) Kinetic parameters were analyzed using SigmaPlot (v12.0, SPP Inc., Chicago, IL, USA).

In test [6] the target is T3, hD4.4R (Homo sapiens, UniProt P21917).
T3 sequence (P21917 1-419): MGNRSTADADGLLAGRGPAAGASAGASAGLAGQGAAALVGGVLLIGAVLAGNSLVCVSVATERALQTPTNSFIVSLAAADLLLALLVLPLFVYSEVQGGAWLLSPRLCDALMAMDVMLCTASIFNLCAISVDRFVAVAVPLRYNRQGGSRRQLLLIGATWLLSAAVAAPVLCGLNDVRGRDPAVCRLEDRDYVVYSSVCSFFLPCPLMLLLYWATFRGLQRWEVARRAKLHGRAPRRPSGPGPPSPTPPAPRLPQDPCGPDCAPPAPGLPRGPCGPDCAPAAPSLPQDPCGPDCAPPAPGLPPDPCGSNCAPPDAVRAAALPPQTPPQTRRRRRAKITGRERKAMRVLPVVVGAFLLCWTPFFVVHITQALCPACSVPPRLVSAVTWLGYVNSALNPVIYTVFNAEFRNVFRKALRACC
Briefly: Cell-based functional GPCR assay, cAMP, CHO-D4R. As to conditions: for % Stimulation, hD4.4R: 100 μM compound, % of control agonist response (300 nM DA). As to the method:
as §1, §2

Test [7] has as its target T4, hD2LR (Homo sapiens, UniProt P14416).
T4 construct: host or cells: CHO (CHO-D2R)
The test is described as follows: Cell-based functional GPCR assay, Ca2+ mobilization, CHO-D2R. Particulars: for % Stimulation, hD2LR: 100 μM compound, % of control agonist response (10 μM DA). As to the method: as §1, §3

Test [8] addresses T5, hMAO-A (Homo sapiens, UniProt P21397).
T5 construct: purchased Sigma-Aldrich
T5 sequence (P21397 1-527): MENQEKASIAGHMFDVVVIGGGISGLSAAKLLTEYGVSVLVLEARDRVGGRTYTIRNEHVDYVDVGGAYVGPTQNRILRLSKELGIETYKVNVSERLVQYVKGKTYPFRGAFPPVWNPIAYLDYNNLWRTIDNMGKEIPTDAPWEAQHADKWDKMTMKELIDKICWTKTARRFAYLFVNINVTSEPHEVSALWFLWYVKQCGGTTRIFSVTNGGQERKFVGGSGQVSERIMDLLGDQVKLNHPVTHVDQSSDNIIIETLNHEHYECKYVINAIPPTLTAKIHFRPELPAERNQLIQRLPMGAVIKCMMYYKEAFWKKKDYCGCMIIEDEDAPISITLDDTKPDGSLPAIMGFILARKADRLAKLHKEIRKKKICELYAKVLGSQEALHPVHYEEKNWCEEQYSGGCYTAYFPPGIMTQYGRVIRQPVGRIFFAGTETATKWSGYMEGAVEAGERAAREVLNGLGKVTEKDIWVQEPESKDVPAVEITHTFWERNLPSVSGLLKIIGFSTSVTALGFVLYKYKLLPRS
The test is described as follows: In vitro hMAO-A inhibition and enzyme kinetics, chemiluminescent MAO-Glo assay. In kind it is biochemical. Particulars: recombinant hMAO-A; mean ± SD of triplicate experiments. As to the method:
as §4, §5

Test [9] deals with MAO-A. Further details: method as in earlier work. Particulars: ref 49 (Park et al. 2020); cited from earlier work.
On the set-up of test [10]: method as in PMID 31173966. As to conditions: cited from earlier work.

Each structure is given as a SMILES string. Several values for one entry are separate records, joined by “and”; a condition that tells them apart may be missing. Equal values may be shown once. Entries after “also recorded” stand apart in the source; their conditions may differ. Read-outs that look alike come from different tables or passages of the source.

hD1R, sequence (P21728 whole entry): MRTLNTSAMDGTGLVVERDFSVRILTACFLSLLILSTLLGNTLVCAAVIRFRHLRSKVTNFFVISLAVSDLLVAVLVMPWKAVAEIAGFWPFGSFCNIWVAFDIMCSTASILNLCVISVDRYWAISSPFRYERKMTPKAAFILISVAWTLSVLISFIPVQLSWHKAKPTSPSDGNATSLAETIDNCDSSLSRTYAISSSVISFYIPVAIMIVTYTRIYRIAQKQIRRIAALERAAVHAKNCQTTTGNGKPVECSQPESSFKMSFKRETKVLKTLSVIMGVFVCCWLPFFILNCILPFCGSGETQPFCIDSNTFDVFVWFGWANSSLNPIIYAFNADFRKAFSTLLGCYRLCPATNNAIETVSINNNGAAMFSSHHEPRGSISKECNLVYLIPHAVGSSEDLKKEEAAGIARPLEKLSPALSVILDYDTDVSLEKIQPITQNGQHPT
T4 sequence (P14416 whole entry): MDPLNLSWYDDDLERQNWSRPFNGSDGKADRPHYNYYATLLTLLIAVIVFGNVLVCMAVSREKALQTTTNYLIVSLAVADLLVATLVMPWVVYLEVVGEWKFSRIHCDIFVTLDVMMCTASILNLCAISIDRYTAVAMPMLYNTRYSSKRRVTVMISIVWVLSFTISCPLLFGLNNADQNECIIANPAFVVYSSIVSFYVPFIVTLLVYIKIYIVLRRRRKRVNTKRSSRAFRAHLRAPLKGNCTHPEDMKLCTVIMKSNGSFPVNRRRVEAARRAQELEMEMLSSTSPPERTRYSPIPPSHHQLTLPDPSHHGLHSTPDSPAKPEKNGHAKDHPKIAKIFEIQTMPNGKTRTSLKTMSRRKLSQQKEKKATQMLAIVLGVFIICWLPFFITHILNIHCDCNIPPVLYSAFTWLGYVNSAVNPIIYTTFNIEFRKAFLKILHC
hD3R, sequence (P35462 whole entry): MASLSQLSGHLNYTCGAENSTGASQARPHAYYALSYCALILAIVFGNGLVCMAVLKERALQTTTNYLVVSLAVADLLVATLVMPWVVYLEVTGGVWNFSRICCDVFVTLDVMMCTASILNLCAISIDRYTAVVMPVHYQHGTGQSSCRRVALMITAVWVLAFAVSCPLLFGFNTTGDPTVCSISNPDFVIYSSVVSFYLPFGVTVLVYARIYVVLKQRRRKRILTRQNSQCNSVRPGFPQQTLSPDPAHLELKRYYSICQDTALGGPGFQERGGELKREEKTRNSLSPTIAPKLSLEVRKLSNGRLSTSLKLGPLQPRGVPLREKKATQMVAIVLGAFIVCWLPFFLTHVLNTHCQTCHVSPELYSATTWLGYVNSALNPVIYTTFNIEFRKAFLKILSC

For the molecule `O=c1cc(-c2ccc(O)c(O)c2)oc2cc(O)ccc12` [Compound 1, 3′,4′,7-trihydroxyflavone], the “Immobility time in forced swimming test” value in test [1] (3, 10, and 30 mg/kg p.o., 1 h before FST) is listed as “did not reduce the immobility time; also recorded: none of those doses alleviated the immobility time; also recorded: did not show an antidepressant effect”. The inhibition (commonly the relative decrease from the control value, in per cent) at 100 µM in [2] is -0.97%; in test [3] it was 0.7%; in test [4], 18.1%; in test [6], 134%; in [7], -40%. Besides, the “% Stimulation, hD3R” value in test [2] (100 μM compound, % of control agonist response (300 nM DA)) amounted to 38.5 ± 5.94%. Also, in [3], the “% Stimulation, hD1R” value came out at 6.95 ± 14.07%. Moreover, the “% Stimulation, h5HT1AR” value in [4] is listed as −2.9 ± 0.28%. Also, the IC50 (commonly the point on the concentration scale where inhibition reaches its midpoint) in test [5] was greater than 150 µM; in test [6] (read-out: IC50, antagonist effect at hD4.4R), 22.5 ± 2.18 µM. In addition, in [6] (12.5 µM compound, read-out: % inhibition of the response of the control agonist, hD4.4R), the inhibition at 12.5 µM came to 40.9%. Further, the inhibition at 25 µM in [6] (25 µM compound, read-out: % inhibition of the response of the control agonist, hD4.4R) is 57.6%. For the same molecule, the inhibition at 50 µM in [6] (50 µM compound, read-out: % inhibition of the response of the control agonist, hD4.4R) was 69%. The “% Stimulation, hD4.4R” value in [6] is 10.33 ± 7.46%. Moreover, in test [7], the “% Stimulation, hD2LR” value is recorded as −22.45 ± 2.05%.
As for `COc1ccc(-c2coc3cc(O)ccc3c2=O)cc1O` [Compound 3, calycosin], in test [2], the inhibition at 100 µM was -7.97%. In test [3], the inhibition at 100 µM worked out at 47.8% and the “% Stimulation, hD1R” value turned out to be 5.65 ± 11.53%. Also, in test [4], the inhibition at 100 µM turned out to be 16.8% and the “% Stimulation, h5HT1AR” value was determined as 2.5 ± 0.42%. Moreover, in [5] (Lineweaver–Burk plot and its secondary plots, read-out: Inhibition constants (Ki) hMAO-B), the Ki (commonly a dissociation constant, usually derived from enzyme kinetics or from competition with a known ligand) came to 2.56 µM. In test [5], the “SI (selective index)” value was 15.82 and the IC50 came out at 7.19 ± 0.32 µM. The “Inhibition mode, hMAO-B” value in test [5] (secondary plot of slopes (Kmapp/Vmaxapp) versus concentrations of inhibitor) is recorded as “Competitive”. For the same molecule, the IC50 in [8] is 114 ± 3.39 µM. Moreover, in test [6], the inhibition at 100 µM was -27.3% and the “% Stimulation, hD4.4R” value came to 33.63 ± 12.10%. In [7], the inhibition at 100 µM was -18.6% and the “% Stimulation, hD2LR” value is on record as −13.8 ± 0.28%.
Take `O=c1cc(-c2ccc(O)c(O)c2)oc2cc(O)cc(O)c12` [luteolin, 3′,4′,5,7-tetrahydroxyflavone]: the IC50 in [9] is 8.57 ± 0.47 µM.
As to `C=C(C)[C@@H]1CCC(C)=C[C@H]1c1c(O)cc(CCCCC)cc1O` [cannabidiol], the “Effect on depressive symptoms” value in test [10] (10 mg/kg i.v. weekly for four weeks) is listed as “significantly improve depressive symptoms”; in [10] (10 mg/kg p.o.), “no significant effects”; in [10] (100 mg/kg p.o. weekly for four weeks), “significantly improve depressive symptoms”.
For `CNCCCN1c2ccccc2CCc2ccccc21` [desipramine, reference compound], the “Immobility time in forced swimming test” value in test [1] (15 mg/kg dose p.o., positive control) is listed as “significant reduction in immobility time”.
For `O=c1c(-c2ccc(O)c(O)c2)coc2cc(O)ccc12` [Compound 2, 3′,4′,7-trihydroxyisoflavone], the inhibition at 100 µM in test [2] is -8%. Also, in test [3], the inhibition at 100 µM is 22.2% and the “% Stimulation, hD1R” value is listed as −3.1 ± 5.66%. Moreover, in [4], the inhibition at 100 µM stood at 7.3% and the “% Stimulation, h5HT1AR” value is −1.1 ± 0.42%. For the same molecule, in test [5], the “SI (selective index)” value turned out to be 2.48; the IC50 is ~70 µM and 71.2 µM. In addition, the IC50 in test [8] was 177 ± 7.8 µM. For the same molecule, in test [6], the inhibition at 100 µM was -11.2% and the “% Stimulation, hD4.4R” value is on record as 35.8 ± 10.59%. Besides, in test [7], the inhibition at 100 µM is -25.8% and the “% Stimulation, hD2LR” value was −18.35 ± 0.78%.

(Values after PMC10650131 (International Journal of Molecular Sciences, 2023).)
